Data as given in PubChem BioAssay (NCI).
Several values for one entry are separate records, joined by “and”; a condition that tells them apart may be missing. Identical values can stand only once.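 Where inhibition never reached the appropriate level, the endpoint shown equals the highest concentration tested. Otherwise, values were interpolated linearly from a five-concentration, 48-hour dose response in 96-well plates. GI50 marks 50% less growth. TGI: concentration producing complete growth inhibition.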

How the values were obtained:
Assay in all cases: NCI-60 cell line screen, 48 h
BT-549 breast = test system: BT-549 breast
SN12C renal = test system: SN12C renal
MDA-MB-231 breast = test system: MDA-MB-231 breast
NCI-H522 lung = test system: NCI-H522 lung
HCC-2998 colon = test system: HCC-2998 colon
K-562 leukemia = test system: K-562 leukemia
CCRF-CEM leukemia = test system: CCRF-CEM leukemia
T-47D breast = test system: T-47D breast
NCI-H23 lung = test system: NCI-H23 lung
A498 renal = test system: A498 renal

Compound: O=C(Cn1c(C(=O)c2ccc(Cl)cc2)nc(-c2ccc(Cl)cc2)c1-c1ccc(Cl)cc1)c1ccccc1
- GI50 (BT-549 breast): > 100 µM
- TGI (BT-549 breast): > 100 µM
- GI50 (SN12C renal): > 100 µM
- TGI (SN12C renal): > 100 µM
- GI50 (MDA-MB-231 breast): > 100 µM
- TGI (MDA-MB-231 breast): > 100 µM
- GI50 (NCI-H522 lung): > 100 µM
- TGI (NCI-H522 lung): > 100 µM
- GI50 (HCC-2998 colon): > 100 µM
- TGI (HCC-2998 colon): > 100 µM
- GI50 (K-562 leukemia): > 100 µM
- TGI (K-562 leukemia): > 100 µM
- GI50 (CCRF-CEM leukemia): > 100 µM
- TGI (CCRF-CEM leukemia): > 100 µM
- GI50 (T-47D breast): > 100 µM
- TGI (T-47D breast): > 100 µM
- GI50 (NCI-H23 lung): > 100 µM
- TGI (NCI-H23 lung): > 100 µM
- GI50 (A498 renal): > 100 µM
- TGI (A498 renal): > 100 µM

Compound: Fc1cc(F)c(F)c(S)c1F
- TGI (BT-549 breast): 52 µM
- TGI (SN12C renal): 43.8 µM
- TGI (MDA-MB-231 breast): 44.8 µM
- TGI (NCI-H522 lung): 37.8 µM
- TGI (HCC-2998 colon): > 100 µM
- TGI (K-562 leukemia): > 100 µM
- TGI (CCRF-CEM leukemia): > 100 µM
- TGI (T-47D breast): > 100 µM
- TGI (NCI-H23 lung): > 100 µM
- TGI (A498 renal): 33.2 µM

Compound: Cc1ccccc1C1=C(c2cn(C)c3ccccc23)C(=O)NC1=O
- GI50 (BT-549 breast): > 21.8 µM
- TGI (BT-549 breast): > 25 µM
- GI50 (SN12C renal): > 22.7 µM
- TGI (SN12C renal): > 25 µM
- GI50 (MDA-MB-231 breast): 21.5 µM
- TGI (MDA-MB-231 breast): > 25 µM
- GI50 (NCI-H522 lung): > 22.6 µM
- TGI (NCI-H522 lung): > 25 µM
- GI50 (HCC-2998 colon): > 25 µM
- TGI (HCC-2998 colon): > 25 µM
- GI50 (K-562 leukemia): 13.6 µM
- TGI (K-562 leukemia): > 25 µM
- GI50 (CCRF-CEM leukemia): 9.75 µM
- TGI (CCRF-CEM leukemia): > 25 µM
- GI50 (T-47D breast): 17.8 µM
- TGI (T-47D breast): > 25 µM
- GI50 (NCI-H23 lung): > 25 µM
- TGI (NCI-H23 lung): > 25 µM
- GI50 (A498 renal): 6.52 µM
- TGI (A498 renal): 20.7 µM

Compound: Cc1ccc(-c2nc3nc(-c4ccc(F)cc4)nc(N4CCNCC4)c3o2)cc1
- GI50 (BT-549 breast): 13.6 µM
- TGI (BT-549 breast): 30.1 µM
- GI50 (SN12C renal): 5.54 µM
- TGI (SN12C renal): 19.8 µM
- GI50 (MDA-MB-231 breast): 1.86 µM
- TGI (MDA-MB-231 breast): 3.63 µM
- GI50 (NCI-H522 lung): 2.18 µM
- TGI (NCI-H522 lung): 6.19 µM
- GI50 (HCC-2998 colon): 4.11 µM
- TGI (HCC-2998 colon): 15.8 µM
- GI50 (K-562 leukemia): 1.46 µM
- TGI (K-562 leukemia): 5.44 µM
- GI50 (CCRF-CEM leukemia): 1.91 µM
- TGI (CCRF-CEM leukemia): 4.74 µM
- GI50 (T-47D breast): 2.3 µM
- TGI (T-47D breast): 6.92 µM
- GI50 (NCI-H23 lung): 12 µM
- TGI (NCI-H23 lung): 27.6 µM
- GI50 (A498 renal): 16.1 µM
- TGI (A498 renal): 30.5 µM

Compound: CC1=C/C=C/C(=O)O[C@@H]([C@H](C)[C@H](O)[C@@H](C)NC(=O)C(C)C)[C@H](C)/C=C/C(C)=C/[C@H]2C=CCC[C@@]2(C)\C=C\1
- GI50 (BT-549 breast): 0.836 µM and 1.13 µM
- TGI (BT-549 breast): 16.3 µM
- GI50 (SN12C renal): 0.806 µM and 0.275 µM
- TGI (SN12C renal): 8.46 µM
- GI50 (MDA-MB-231 breast): 0.0186 µM
- TGI (MDA-MB-231 breast): 0.106 µM
- GI50 (NCI-H522 lung): 4.97 µM and 2.06 µM
- TGI (NCI-H522 lung): 13.6 µM
- GI50 (HCC-2998 colon): 0.561 µM and 4.67 µM
- TGI (HCC-2998 colon): 23.5 µM
- GI50 (K-562 leukemia): 0.559 µM and 0.565 µM
- TGI (K-562 leukemia): 36.9 µM
- GI50 (CCRF-CEM leukemia): 5.17 µM and 2.26 µM
- TGI (CCRF-CEM leukemia): 17.6 µM
- GI50 (T-47D breast): 0.112 µM and 0.132 µM
- TGI (T-47D breast): 36.6 µM
- GI50 (NCI-H23 lung): 1.75 µM and 1.49 µM
- TGI (NCI-H23 lung): 15.2 µM
- GI50 (A498 renal): 6.03 µM and 5.25 µM
- TGI (A498 renal): 32.8 µM

Compound: C[C@H](c1ccc(F)cc1CCCC(=O)O)N(c1cc(F)ccc1F)S(=O)(=O)c1ccc(Cl)cc1
- GI50 (BT-549 breast): 22.4 µM
- TGI (BT-549 breast): 68.8 µM
- GI50 (SN12C renal): 32.2 µM
- TGI (SN12C renal): > 100 µM
- GI50 (MDA-MB-231 breast): 31.4 µM
- TGI (MDA-MB-231 breast): > 100 µM
- GI50 (NCI-H522 lung): 26 µM
- TGI (NCI-H522 lung): > 93.3 µM
- GI50 (HCC-2998 colon): 20.9 µM
- TGI (HCC-2998 colon): 59.4 µM
- GI50 (K-562 leukemia): 36.6 µM
- TGI (K-562 leukemia): > 100 µM
- GI50 (CCRF-CEM leukemia): 19.3 µM
- TGI (CCRF-CEM leukemia): > 69.7 µM
- GI50 (T-47D breast): 19.2 µM
- TGI (T-47D breast): > 83.9 µM
- GI50 (NCI-H23 lung): 19.6 µM
- TGI (NCI-H23 lung): 59 µM
- GI50 (A498 renal): 13.1 µM
- TGI (A498 renal): 57.6 µM
